ChEMBL document CHEMBL1201862, “PubChem BioAssay data set” (2004)
The source made the active and inactive calls. Rule as the data show it, for most assays here: actives have a measured EC50 and inactives only a lower limit.

Assays:
[1] = target: T1, Heat shock factor protein 1 (Mus musculus, UniProt P38532); test: enhancement of HSF1-driven luciferase signal – cell-based, NIH3T3, luminescence, dose retest, confirmation (AID 435004); type: functional;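 also: stress induced by proteasome inhibitor MG132 added 30 min after compound; luciferase reporter driven by HSF1 response element in NIH3T3 cells; actives raise luminescence as potentiators of the MG132 stress response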
T1 sequence (P38532 whole entry): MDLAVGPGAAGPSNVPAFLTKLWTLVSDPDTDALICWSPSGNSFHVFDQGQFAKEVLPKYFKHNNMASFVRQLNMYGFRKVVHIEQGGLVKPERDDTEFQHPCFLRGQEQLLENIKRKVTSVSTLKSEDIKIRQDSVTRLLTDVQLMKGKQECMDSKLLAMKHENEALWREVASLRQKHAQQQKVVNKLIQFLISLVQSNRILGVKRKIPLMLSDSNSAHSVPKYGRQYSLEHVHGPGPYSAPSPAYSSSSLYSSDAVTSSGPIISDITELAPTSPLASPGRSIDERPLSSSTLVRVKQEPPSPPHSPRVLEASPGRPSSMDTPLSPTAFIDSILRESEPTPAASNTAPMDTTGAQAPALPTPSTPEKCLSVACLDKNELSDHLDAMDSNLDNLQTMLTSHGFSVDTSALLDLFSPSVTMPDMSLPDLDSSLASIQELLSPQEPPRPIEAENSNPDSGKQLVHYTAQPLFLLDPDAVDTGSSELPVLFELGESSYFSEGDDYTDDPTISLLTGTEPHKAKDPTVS

[2] = target: T2, Rac GTPase-activating protein 1 (Homo sapiens, UniProt Q9H0H5); test: blockers of MgcRacGAP-driven Rac1 GTP hydrolysis – biochemical, ADP Hunter fluorescence, primary and confirmatory, confirmation (AID 624330); type: functional
T2 sequence (Q9H0H5 whole entry): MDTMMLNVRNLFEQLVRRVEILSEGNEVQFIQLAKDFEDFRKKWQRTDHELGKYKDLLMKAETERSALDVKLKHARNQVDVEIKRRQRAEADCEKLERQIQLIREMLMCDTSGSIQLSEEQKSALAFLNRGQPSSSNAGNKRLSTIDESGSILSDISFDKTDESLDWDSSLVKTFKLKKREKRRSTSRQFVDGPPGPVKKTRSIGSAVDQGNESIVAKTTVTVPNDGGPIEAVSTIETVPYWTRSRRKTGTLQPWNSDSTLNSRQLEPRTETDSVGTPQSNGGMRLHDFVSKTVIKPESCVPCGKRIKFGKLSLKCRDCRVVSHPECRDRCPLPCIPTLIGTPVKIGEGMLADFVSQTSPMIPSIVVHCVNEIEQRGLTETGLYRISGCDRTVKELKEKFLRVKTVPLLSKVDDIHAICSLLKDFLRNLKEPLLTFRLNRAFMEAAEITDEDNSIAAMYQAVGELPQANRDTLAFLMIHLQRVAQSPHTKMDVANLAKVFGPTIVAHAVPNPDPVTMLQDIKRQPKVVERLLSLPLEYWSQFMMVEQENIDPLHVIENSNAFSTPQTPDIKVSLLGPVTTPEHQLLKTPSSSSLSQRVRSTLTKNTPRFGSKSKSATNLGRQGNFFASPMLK

[3] = target: T3, RNA-binding protein pos-1 (Caenorhabditis elegans, UniProt G5EF15); test: disruptors of C. elegans POS-1 RNA interaction – biochemical, fluorescence polarization, dose response (AID 1964);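 also: purified POS-1 fused to maltose binding protein made in E. coli; potency of compounds blocking POS-1 binding to fluorescent RNA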
T3 sequence (G5EF15 whole entry): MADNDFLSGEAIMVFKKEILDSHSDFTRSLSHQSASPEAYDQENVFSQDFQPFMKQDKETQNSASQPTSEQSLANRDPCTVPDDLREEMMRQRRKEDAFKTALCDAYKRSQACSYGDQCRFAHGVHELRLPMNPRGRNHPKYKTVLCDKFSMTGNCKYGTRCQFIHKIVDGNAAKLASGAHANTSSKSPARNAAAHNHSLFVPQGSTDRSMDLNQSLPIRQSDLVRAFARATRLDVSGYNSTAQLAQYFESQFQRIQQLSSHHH

[4] = target: T4, Zinc finger protein mex-5 (Caenorhabditis elegans, UniProt Q9XUB2); test: potency of MEX-5 RNA-binding blockers – biochemical, C. elegans, fluorescence polarization, dose response (AID 1960)
T4 sequence (Q9XUB2 whole entry): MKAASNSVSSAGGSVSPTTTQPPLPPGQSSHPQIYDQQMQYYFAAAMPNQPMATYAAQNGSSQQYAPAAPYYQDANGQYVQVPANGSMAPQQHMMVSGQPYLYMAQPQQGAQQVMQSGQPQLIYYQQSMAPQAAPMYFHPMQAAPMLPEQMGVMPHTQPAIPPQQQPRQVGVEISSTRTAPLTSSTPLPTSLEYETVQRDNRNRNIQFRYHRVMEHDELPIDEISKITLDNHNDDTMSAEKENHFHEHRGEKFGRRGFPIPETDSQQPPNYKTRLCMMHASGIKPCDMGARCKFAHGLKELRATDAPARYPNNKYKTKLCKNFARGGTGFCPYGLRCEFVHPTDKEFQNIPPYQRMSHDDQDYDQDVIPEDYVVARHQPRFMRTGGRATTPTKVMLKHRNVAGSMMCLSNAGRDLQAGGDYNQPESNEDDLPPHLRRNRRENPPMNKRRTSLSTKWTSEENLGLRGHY

INS1 = test: INS-1E survival protection against cytokine death – cell-based, luminescence, retest, dose response (AID 449756); type: functional; details: Rattus norvegicus;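 also: cell death triggered by IL-1 beta plus TNF-alpha plus IFN-gamma mixture; protective hits raise ATP signal compared with cytokine alone wells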
[5] = tested on: Streptococcus sp. 'group A'; test: Streptococcus pyogenes SK(-)GAS viability under kanamycin – luminescence, BacTiterGlo, confirmation, counter-screen for streptokinase expression inhibitor project, dose response (AID 1900); type: functional, organism-based
Streptococcus = test: GAS UMAA2166 growth inhibition – luminescence, BacTiterGlo, counter-screen for streptokinase expression inhibitor project, dose response (AID 1915); type: functional, organism-based;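 also: potency for reduction of bacterial viability or growth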
Streptokinase A = target: T5, Streptokinase A (Streptococcus pyogenes serotype M1, UniProt P10520); test: viability-normalized secreted streptokinase activity reduction – plasminogen activation absorbance, OD405, dose response (AID 1914); type: functional, Streptococcus pyogenes M1 GAS;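 also: secreted streptokinase activity via plasminogen activation per viability signal from cell pellet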
T5 sequence (P10520 whole entry): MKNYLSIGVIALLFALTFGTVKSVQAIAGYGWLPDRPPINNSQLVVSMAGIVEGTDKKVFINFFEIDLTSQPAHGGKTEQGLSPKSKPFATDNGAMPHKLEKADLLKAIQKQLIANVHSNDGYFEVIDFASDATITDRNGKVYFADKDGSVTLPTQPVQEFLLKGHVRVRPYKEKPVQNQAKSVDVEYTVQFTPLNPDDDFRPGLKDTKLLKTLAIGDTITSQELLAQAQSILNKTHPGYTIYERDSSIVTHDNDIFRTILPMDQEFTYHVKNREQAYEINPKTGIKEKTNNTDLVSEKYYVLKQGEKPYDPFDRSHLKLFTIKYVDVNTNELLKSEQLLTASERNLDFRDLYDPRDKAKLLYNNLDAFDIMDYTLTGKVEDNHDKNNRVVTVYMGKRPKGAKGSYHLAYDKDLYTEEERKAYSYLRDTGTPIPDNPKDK

[6] = target: T6, Corticotropin-releasing factor receptor 2/Corticotropin-releasing factor-binding protein (Homo sapiens, UniProt P24387+Q13324); test: activators of CRF receptor 2 with binding protein – uHTS hits, confirmation (AID 602473); type: functional; details: read-out: EC50_Mean
T6 sequence (Q13324 whole entry): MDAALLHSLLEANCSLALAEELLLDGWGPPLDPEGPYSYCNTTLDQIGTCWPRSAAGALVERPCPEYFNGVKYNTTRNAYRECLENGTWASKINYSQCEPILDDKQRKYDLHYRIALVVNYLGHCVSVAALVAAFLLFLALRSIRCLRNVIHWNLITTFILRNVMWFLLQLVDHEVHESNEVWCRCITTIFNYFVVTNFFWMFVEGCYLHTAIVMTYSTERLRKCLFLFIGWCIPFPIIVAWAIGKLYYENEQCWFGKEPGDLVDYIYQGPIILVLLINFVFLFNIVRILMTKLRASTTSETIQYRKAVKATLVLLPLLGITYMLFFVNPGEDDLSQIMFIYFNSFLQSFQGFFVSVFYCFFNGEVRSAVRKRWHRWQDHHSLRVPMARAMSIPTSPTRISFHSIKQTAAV
T6 sequence (P24387 whole entry): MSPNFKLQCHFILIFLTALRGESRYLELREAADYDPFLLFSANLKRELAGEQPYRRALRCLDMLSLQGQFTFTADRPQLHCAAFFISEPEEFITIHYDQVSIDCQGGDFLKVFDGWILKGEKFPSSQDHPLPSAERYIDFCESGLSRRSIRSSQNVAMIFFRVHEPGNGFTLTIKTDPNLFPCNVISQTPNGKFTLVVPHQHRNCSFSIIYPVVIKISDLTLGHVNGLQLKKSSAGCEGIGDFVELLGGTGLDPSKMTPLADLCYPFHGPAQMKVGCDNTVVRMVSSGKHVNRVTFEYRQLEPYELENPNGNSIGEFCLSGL

[7] = Luminescence Cell-Based Dose Retest to Confirm Inhibitors of Cancer Stem Cells. [Related pubchem assays (depositor defined):AID2717, AID2721]; type: functional; details: Homo sapiens
[8] = P. falciparum Dd2 growth inhibitors, dose response, SYBR Green, cherry-picked samples (AID 1159567); type: functional, cell-based

Cc1cc(C(=O)N2CCN(c3ccccn3)CC2)c(C)o1
EC50 [1]: > 260 µM (inactive)

COc1cccc(C(=O)N2CCN(C3CCCCC3)CC2)c1
IC50 [2]: 142 µM (active)

CC(=O)Nc1ccc(/C=C/C(=O)c2ccc3c(c2)OCCO3)cc1
EC50 [3]: > 300 µM (not active)
EC50 [4]: > 300 µM (not active)

CC(C)CCNC1c2ccccc2C(=O)N1Cc1ccccc1 (configuration not stated)
EC50 [1]: > 260 µM (inactive)

COc1cc2nc(NC(=O)c3ccc(Cl)cc3)sc(=O)c2cc1OC
EC50 [1]: > 260 µM (inactive)

Cc1ccc2oc(C(Cl)(Cl)Cl)cc(=O)c2c1
EC50 [1]: 27.9 µM (active)

CC(=O)c1ccc(NC(S)=NC(C)c2ccc(Cl)cc2Cl)cc1 (configuration not stated)
AC50 (INS1): 15.6 µM (active)

CCN(CC)CCN/C=C1/C(=O)NC(=O)N(Cc2ccccc2)C1=O
EC50 [3]: > 300 µM (not active)
EC50 [4]: > 300 µM (not active)

Cc1nc(C)c(-c2csc(NCCc3ccccc3)n2)s1
AC50 (INS1): 18 µM (active)

Cc1ccc(/C=C/C(=O)c2ccc([N+](=O)[O-])o2)cc1
AC50 (INS1): 5.65 µM (active)
EC50 [5]: 4.07 µM (active)
EC50 (Streptococcus): 14.2 µM (active)
EC50 (Streptokinase A): 8.82 µM (active)

O=C(NCCN1CCOCC1)c1cccn2c(=O)c3c4c(sc3nc12)CCCC4
EC50 [3]: > 300 µM (not active)
EC50 [4]: > 300 µM (not active)

CCOc1ccc(C(=O)NC2CC3CCCC(C2)N3CC(C)C)cc1 (configuration not stated)
EC50 [1]: > 260 µM (inactive)

O=C(Nc1nnc(-c2ccccc2)o1)c1cc(Cl)sc1Cl
EC50 [6]: > 53 µM (inactive)

O=C(NC(CO)(CO)CO)c1coc(=O)c(Br)c1
EC50 [1]: > 260 µM (inactive)

COc1cc(CNc2ccc(N3CCN(C(C)=O)CC3)cc2)ccc1OCc1ccccc1
IC50 [2]: 12.8 µM (active)

COc1ccc(-c2ccc3c(c2)S(=O)(=O)c2cccc(C(=O)NCCOc4ccccc4Cl)c2C3=O)cc1OC
AC50 (INS1): 3.41 µM (active)

O=C(c1cn(CC(=O)N2CCCCC2)c2ccccc12)C1CC1
EC50 [1]: > 260 µM (inactive)

CN(C)/C=C1/C=C(c2ccccc2)OC1=O
IC50 [2]: 52.1 µM (active)

O=C(NCc1ccccn1)C1Nc2ccc(C(F)(F)F)cc2C2C=CCC12 (configuration not stated)
EC50 [3]: > 300 µM (not active)
EC50 [4]: > 300 µM (not active)

COc1ccc(C2C(C#N)=C(N)OC3=C2C(=O)CC(C)(C)C3)cc1Cn1nc(C)c([N+](=O)[O-])c1C (configuration not stated)
EC50 [3]: > 300 µM (not active)
EC50 [4]: > 300 µM (not active)

COc1ccc2c(c1)CCc1c(C(=O)N3CC4(C)CC3CC(C)(C)C4)noc1-2 (configuration not stated)
EC50 [1]: > 260 µM (inactive)
AC50 [7]: < 0.16 µM (active)

Cc1ccc(C)c(OCC(O)CN2CCC(C)CC2)c1C (configuration not stated)
IC50 [2]: 225 µM (active)

CCCCn1c(N)c(N(CC(C)C)C(=O)Cc2ccc(S(=O)(=O)N3CCOCC3)s2)c(=O)[nH]c1=O
EC50 [6]: 6.11 µM (active)

CCO/C(O)=C/C(C)=N/c1cc(C)nn1-c1ccccc1
EC50 [1]: > 260 µM (inactive)

C[C@H]1CN([C@@H](C)CO)C(=O)CCCn2nncc2CO[C@@H]1CN(C)C(=O)Nc1ccc(N2CCCCC2)cc1
AC50 [8]: > 39 µM (inactive)

CCCNC(=O)c1cc2c(c(-c3cccc(-c4cc5ccccc5o4)c3)n1)[C@@H](CCO)N(C(=O)NC(C)C)C2
AC50 [8]: 4.15 µM (active)

O=c1[nH][nH]c2cc(=O)n(-c3ccc(Cl)cc3)nc12
EC50 [3]: 15.4 µM (active)
EC50 [4]: 4.09 µM (active)

COc1ccc(CNC(=O)c2cc3c(c(-c4cccc(-c5cccc(C#N)c5)c4)n2)[C@H](CCO)N([S@@+]([O-])C(C)(C)C)C3)cc1
AC50 [8]: 3.46 µM (active)

CCOc1cc(/C=N/NC(=O)CN2CCCCC2)ccc1O
IC50 [2]: 50.4 µM (active)

CC(=N)/C(C#N)=C(/O)CSc1nnc(-c2ccccc2Br)o1
EC50 [1]: > 260 µM (inactive)

Nc1ccc2nc(N)sc2c1
IC50 [2]: 9.57 µM (active)

COc1ccc(C#Cc2cccc(-c3nc(C(=O)N[C@@H]4CCN(Cc5ccccc5)C4)cc4c3[C@@H](CCO)N([S+]([O-])C(C)(C)C)C4)c2)cc1OC (some centres not stated)
AC50 [8]: 3.58 µM (active)
